Results reported in patent publication US7145009B2, “Pirazino(aza)indole derivatives” (priority 1999, dated 2006).
Where a name gives a salt, the structure may show the parent alone. Read-outs that look alike come from different tables or passages of the source.

Legend:
[1] = target: T1, h5-HT2C receptor (CHO cells) (Homo sapiens, UniProt P28335); experiment: Functional activity, FLIPR calcium assay, h5-HT2C; format: cell-based; conditions: for Emax: CHO, read-out: h5-HT2C Relative Efficacy
T1 construct: expressed in transfected cells; host or cells: CHO cells
T1 sequence (P28335 33-458): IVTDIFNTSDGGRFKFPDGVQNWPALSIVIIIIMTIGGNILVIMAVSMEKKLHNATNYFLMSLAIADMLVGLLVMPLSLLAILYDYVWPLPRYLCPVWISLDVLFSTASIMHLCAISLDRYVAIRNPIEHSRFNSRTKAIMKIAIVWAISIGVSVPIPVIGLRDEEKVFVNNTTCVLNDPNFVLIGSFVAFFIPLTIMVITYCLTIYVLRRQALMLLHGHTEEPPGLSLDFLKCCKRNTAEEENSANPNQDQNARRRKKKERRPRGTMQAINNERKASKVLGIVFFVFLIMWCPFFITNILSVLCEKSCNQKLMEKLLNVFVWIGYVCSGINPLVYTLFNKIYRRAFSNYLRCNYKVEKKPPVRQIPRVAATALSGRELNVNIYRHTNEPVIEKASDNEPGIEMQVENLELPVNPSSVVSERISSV
Experimental: (§1) The functional activity of compounds of formula (I) was assayed using a Fluorimetric Imaging Plate reader (FLIPR):
(§2) CHO cells expressing either the h5-HT2C or h5-HT2A receptors were counted and plated into standard 96 well microtitre plates before the day of testing to give a confluent monolayer. The following day the cells were dye loaded with the calcium sensitive dye Fluo 3-AM by incubation with serum free culture maintenance media containing pluronic acid and Fluo 3-AM dissolved in DMSO at 37° C. in a CO2 incubator at 95% humidity for approximately 90 minutes. Unincorporated dye was removed by washing with Hanks balanced salt solution containing 20 mM HEPES and 2.5 mM probenecid (the assay buffer) using an automated cell washer to leave a total volume of 100 μl/well.
(§3) The drug (dissolved in 50 μl of assay buffer) was added at a rate of 70 μl/sec to each well of the FLIPR 96 well plate during fluorescence measurements. The measurements are taken at 1 sec intervals and the maximum fluorescent signal was measured (approx 10–15 secs after drug addition) and compared with the response produced by 10 μM 5-HT (defined as 100%) to which it is expressed as a percentage response (relative efficacy). Dose response curves were constructed using Graphpad Prism (Graph Software Inc.).

[2] = target: T2, h5-HT2A receptor (CHO cells) (Homo sapiens, UniProt P28223); experiment: Functional activity, FLIPR calcium assay, h5-HT2A; format: cell-based; conditions: for Emax: CHO, read-out: h5-HT2A Relative Efficacy
T2 construct: expressed in transfected cells; host or cells: CHO cells
T2 sequence (P28223 whole entry): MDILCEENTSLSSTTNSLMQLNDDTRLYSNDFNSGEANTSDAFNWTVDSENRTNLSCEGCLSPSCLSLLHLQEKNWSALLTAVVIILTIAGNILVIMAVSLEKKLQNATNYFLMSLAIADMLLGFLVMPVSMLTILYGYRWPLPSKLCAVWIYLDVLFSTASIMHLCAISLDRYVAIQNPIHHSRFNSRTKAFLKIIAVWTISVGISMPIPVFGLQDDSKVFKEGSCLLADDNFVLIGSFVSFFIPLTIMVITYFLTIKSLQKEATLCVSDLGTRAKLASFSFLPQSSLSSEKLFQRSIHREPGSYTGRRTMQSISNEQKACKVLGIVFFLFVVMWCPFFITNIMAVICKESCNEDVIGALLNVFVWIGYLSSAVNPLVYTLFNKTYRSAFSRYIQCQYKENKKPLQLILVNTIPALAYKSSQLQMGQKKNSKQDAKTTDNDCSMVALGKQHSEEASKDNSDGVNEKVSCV
Experimental: as §1, §2, §3

food intake = conditions: rats, literature reports; cited from earlier work
[3] = target: T3, 5-HT2c receptors in a CHO cell line (Homo sapiens, UniProt P28335); experiment: Binding to 5-HT2c receptor, [3H]-5-HT, Method (a); conditions: read-out: Ki (2C)
T3 construct: expressed in transfected cells; host or cells: CHO cell line
T3 sequence (P28335 33-458): T1 sequence (P28335 33-458)
Experimental: (§4) The binding of compounds of formula (I) to serotonin receptors was determined in vitro by standard methods. The preparations were investigated in accordance with the assays given hereinafter.
Method (a): For the binding to the 5-HT2c receptor the 5-HT2c receptors were radiolabelled with [^3H]-5-HT. The affinity of the compounds for 5-HT2c receptors in a CHO cell line was determined according to the procedure of D. Hoyer, G. Engel and H. O. Kalkman, European J. Pharmacol., 1985, 118, 13–23.

[4] = target: T4, human 5-HT2B receptors in a CHO cell line (Homo sapiens, UniProt P41595); experiment: Binding to 5-HT2B receptor, [3H]-5-HT, Method (b); conditions: read-out: Ki (2B)
T4 construct: expressed in transfected cells; host or cells: CHO cell line
T4 sequence (P41595 whole entry): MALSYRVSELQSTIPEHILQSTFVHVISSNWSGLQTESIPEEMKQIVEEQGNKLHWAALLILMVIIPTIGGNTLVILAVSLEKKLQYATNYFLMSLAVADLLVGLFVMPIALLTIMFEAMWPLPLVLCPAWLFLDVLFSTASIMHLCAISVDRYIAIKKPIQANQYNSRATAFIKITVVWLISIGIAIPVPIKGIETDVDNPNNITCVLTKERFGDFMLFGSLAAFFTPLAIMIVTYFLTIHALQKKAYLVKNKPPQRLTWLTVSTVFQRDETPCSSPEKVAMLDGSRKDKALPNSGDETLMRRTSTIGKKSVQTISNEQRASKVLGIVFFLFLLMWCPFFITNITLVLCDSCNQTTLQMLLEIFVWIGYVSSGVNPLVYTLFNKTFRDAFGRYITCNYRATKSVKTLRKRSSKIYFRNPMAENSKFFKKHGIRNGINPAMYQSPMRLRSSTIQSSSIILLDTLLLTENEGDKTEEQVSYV
Experimental: as §4
Method (b): For the binding to the 5-HT2B receptor the 5-HT2B receptors were radiolabelled with [^3H]-5-HT. The affinity of the compounds for human 5-HT2B receptors in a CHO cell line was determined according to the procedure of K. Schmuck, C. Ullmer, P. Engels and H. Lubbett, FEBS Lett., 1994, 342, 85–90.

[5] = target: T5, 5-HT2A receptors in a CHO cell line (Homo sapiens, UniProt P28223); experiment: Binding to 5-HT2A receptor, [125I]-DOI, Method (c); conditions: read-out: Ki (2A)
T5 construct: expressed in transfected cells; host or cells: CHO cell line
T5 sequence (P28223 whole entry): as the sequence (P28223 whole entry) above
Experimental: as §4
Method (c): For the binding to the 5-HT2A receptor the 5-HT2A receptors were radiolabelled with […]. The affinity of the compounds for 5-HT2A receptors in a CHO cell line was determined according to the procedure of D. J. McKenna and S. J. Peroutka, J. Neurosci., 1989, 9/10, 3482–90.

[6] = test system: 5-HT2c syndrome (splayed limbs, hunched posture, retro-pulsion); experiment: 5-HT2c syndrome, in vivo efficacy of 5-HT2C agonists; conditions: rats, 1 mg/kg s.c.
Experimental: The efficacy of 5-HT2C agonists was assessed for ability to induce a specific syndrome.
The 5-HT2c syndrome is a rapid screening method to assess the in vivo efficacy of 5-HT2c agonists through their ability to induce three specific behaviours in rats. The animals are dosed with either a positive control (mCPP), test compound or vehicle, either s.c. or p.o. The animals are observed on an open bench, typically 30, 60 and 180 minutes and the degree of syndrome is assessed over a two minute period on a scale of 0–3 depending on the presence and severity of splayed limbs, hunched posture and retro-pulsion, the three specific behaviours which constitute the syndrome. Data is analysed using Kruskal-Wallis Analysis of Variance followed with appropriate post-hoc tests. All statistical analysis are conducted using Excel version 7.0 (Microsoft Corp.) and Statistica version 5.0 (Stasoft, Inc.).

5-HT1A receptors = target: T6, 5-HT1A receptors (Homo sapiens, UniProt P08908); conditions: literature report; cited from earlier work
T6 sequence (P08908 1-422): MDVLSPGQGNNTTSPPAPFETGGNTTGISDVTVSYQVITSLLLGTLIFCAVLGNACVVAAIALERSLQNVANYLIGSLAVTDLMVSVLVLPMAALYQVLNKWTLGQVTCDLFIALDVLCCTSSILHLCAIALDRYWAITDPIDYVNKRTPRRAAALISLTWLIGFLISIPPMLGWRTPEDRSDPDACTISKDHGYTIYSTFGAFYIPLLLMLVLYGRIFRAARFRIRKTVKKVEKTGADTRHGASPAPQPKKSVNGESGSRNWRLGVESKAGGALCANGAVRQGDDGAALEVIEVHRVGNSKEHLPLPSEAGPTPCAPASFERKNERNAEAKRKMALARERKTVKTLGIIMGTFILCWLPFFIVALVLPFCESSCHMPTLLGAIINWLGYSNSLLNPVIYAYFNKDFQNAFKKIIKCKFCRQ

[7] = FLIPR, CHO cells, Fluo 3-AM, read-out: h5-HT2C EC50

SMILES | EC50 [1] [nM] | Emax [1] [%] | EC50 [2] [nM] | Emax [2] [%] | melting point | other results
Cc1cc2c(cc1Cl)N1CCNCC1C2 (racemic) [Example 5, (RS) 7-Chloro-8-methyl-1,2,3,4,10,10a-hexahydropyrazino[1,2-a]indole fumarate] | 20 | 93 | 110 | 87 |  | 
C[C@H]1CN2c3cc(Cl)ccc3C[C@@H]2CN1 [Example 11, (3S,10aR) 7-Chloro-3-methyl-1,2,3,4,10,10a-hexahydropyrazino[1,2-a]indole hydrochloride] | 58 | 92 | 527 | 38 |  | 
Fc1cc2c(cc1Cl)N1CCNCC1C2 (racemic) [Example 12, (RS) 7-Chloro-8-fluoro-1,2,3,4,10,10a-hexahydropyrazino[1,2-a]indole hemifumarate] | 22 | 92 | 106 | 74 |  | 
Clc1ccc2c(c1)CC1CNCCN21 (racemic) [Example 2, (RS) 8-Chloro-1,2,3,4,10,10a-hexahydropyrazino[1,2-a]indole hydrochloride] |  | 84 | 667 | 88 |  | EC50 [1, 7]: 162 nM
Clc1ccc2c(c1)N1CCNC[C@H]1C2 [Example 8, (10aR) 7-Chloro-1,2,3,4,10,10a-hexahydropyrazino[1,2-a]indole hydrochloride] | 3 | 87 | 100 | 59 |  | 
CSc1ccc2c(c1)N1CCNCC1C2 (racemic) (as salt: fumarate) [Example 13, (RS) 7(Methylthio)-1,2,3,4,10,10a-hexahydropyrazino[1,2-a]indole fumarate] |  |  |  |  | 196 to 198 °C | 
CSc1ccc2c(c1)N1CCNCC1C2 (racemic) [Example 13, (RS) 7(Methylthio)-1,2,3,4,10,10a-hexahydropyrazino[1,2-a]indole fumarate] | 86 | 87 | 176 | 59 |  | 
Clc1ccc2c(c1)N1CCNC[C@@H]1C2 [Example 7, (10aS) 7-Chloro-1,2,3,4,10,10a-hexahydropyrazino[1,2-a]indole hydrochloride] | 161 | 86 | 144 | 67 |  | 
Clc1cccc2c1CC1CNCCN21 (racemic) (as salt: hydrochloride) [Example 3, (RS) 9-Chloro-1,2,3,4,10,10a-hexahydropyrazino[1,2-a]indole hydrochloride] |  |  |  |  | 265 to 269 °C (dec.) | 
Clc1cccc(N2CCNCC2)c1 [mCPP, m-chlorophenylpiperazine] |  |  |  |  |  | effect on food intake (food intake): reduce food intake
Brc1ccc2c(c1)N1CCNCC1C2 (racemic) (as salt: hydrochloride) [Example 4, (RS) 7-Bromo-1,2,3,4,10,10a-hexahydropyrazino[1,2-a]indole hydrochloride] |  |  |  |  | 243 to 245 °C | 
Clc1ccc2c(c1)N1CCNCC1C2 (racemic) [Example 1, (RS) 7-Chloro-1,2,3,4,10,10a-hexahydropyrazino[1,2-a]indole hydrochloride] | 18 | 91 | 513 | 53 |  | Ki [3]: 31 nM; Ki [4]: 32 nM; Ki [5]: 53 nM; time for which significant pharmacological efficacy is maintained (5-HT2c syndrome) [6]: at least 180 minutes
C[C@H]1CN2c3cc(Cl)ccc3C[C@@H]2CN1 (as salt: hydrochloride) [Example 11, (3S,10aR) 7-Chloro-3-methyl-1,2,3,4,10,10a-hexahydropyrazino[1,2-a]indole hydrochloride] |  |  |  |  | 265 °C (dec.) | 
c1ccc2c(c1)CC1CNCCN21 (stereo not shown) [1,2,3,4,10,10a-Hexahydropyrazino[1,2-a]indole] |  |  |  |  |  | selectivity for 5-HT1A receptors over 5-HT2 (binding affinity) (5-HT1A receptors): ten fold
Clc1ccc2c(n1)N1CCNCC1C2 (racemic) (as salt: fumarate) [Example 6, (RS) 7-Chloro-1,2,3,4,10,10a-6-aza-hexahydropyrazino[1,2-a]-7-indole fumarate] |  |  |  |  | 148 °C | 
Clc1cccc2c1CC1CNCCN21 (racemic) [Example 3, (RS) 9-Chloro-1,2,3,4,10,10a-hexahydropyrazino[1,2-a]indole hydrochloride] |  | 82 | 1020 | 49 |  | EC50 [1, 7]: 141 nM
Clc1ccc2c(c1)N1CCNCC1C2 (racemic) (as salt: hydrochloride) [Example 1, (RS) 7-Chloro-1,2,3,4,10,10a-hexahydropyrazino[1,2-a]indole hydrochloride] |  |  |  |  | 235 °C (dec.) | 
Fc1cc2c(cc1Cl)N1CCNCC1C2 (racemic) (as salt: fumarate) [Example 12, (RS) 7-Chloro-8-fluoro-1,2,3,4,10,10a-hexahydropyrazino[1,2-a]indole hemifumarate] |  |  |  |  | 195 to 197 °C | 
Clc1ccc2c(n1)N1CCNCC1C2 (racemic) [Example 6, (RS) 7-Chloro-1,2,3,4,10,10a-6-aza-hexahydropyrazino[1,2-a]-7-indole fumarate] |  | 100 | 1680 | 47 |  | EC50 [1, 7]: 174 nM
Brc1ccc2c(c1)N1CCNCC1C2 (racemic) [Example 4, (RS) 7-Bromo-1,2,3,4,10,10a-hexahydropyrazino[1,2-a]indole hydrochloride] | 13 | 100 | 244 | 58 |  | 
Clc1ccc2c(c1)CC1CNCCN21 (racemic) (as salt: hydrochloride) [Example 2, (RS) 8-Chloro-1,2,3,4,10,10a-hexahydropyrazino[1,2-a]indole hydrochloride] |  |  |  |  | 258 to 262 °C (dec.) | 
